Data set [1] has as its system Candida albicans. The experiment in a line: zones of inhibition on agar plates, Candida albicans (Examples 1, 2, 5, 7). The conditions noted are these: Init., triple layer, Table 7.
Protocol: (§1) Selected single layer and triple layer coated cylinders were then placed on agar plates that had been freshly overlaid with one of the microorganisms shown below in Table 1.
(§2) The coated cylinders were then removed from the serum and placed on agar plates that had been freshly overlaid with one of the microorganisms shown below in Table 2.
(§3) The devices and coating solution were preheated to 45° C. After coating the devices were allowed to dry for about four hours. […] The devices were then allowed to dry for an additional two hours. The resilient coated layer was applied over the durable coated layer by dipping the devices for approximately 5-10 seconds in a collodion solution. The devices were then allowed to dry for an additional two hours. Selected coated devices were then incubated in human serum at 37° C. for one and three weeks.
Data set [2] has as its system bacterial and fungal organisms. The conditions noted are these: cited from earlier work; for bacteriostatic/bactericidal nature / spectrum of antimicrobial activity: general statement; for effect of organic matter on effectiveness: organic matter such as blood.
The test system of a further data set is Staph. epidermidis. The experiment in a line: zones of inhibition on agar plates, Staph. epidermidis (Examples 1, 2, 5, 7). The conditions noted are these: S. epidermidis, Init., triple layer, Table 7.
For another data set, the system named is Pseud. aeruginosa. The experiment in a line: zones of inhibition on agar plates, Pseud. aeruginosa (Examples 1, 2, 5, 7). The conditions noted are these: P. aerug, Init., triple layer, Table 7.
Another data set concerns protein synthesis. As to conditions: general statement; cited from earlier work.
The conditions of data set [3]: cited from earlier work; for solubility in organic solvents: organic solvents/solutions.
The next data set concerns Staphylococcus aureus. The conditions noted are these: cited from earlier work.
Another data set has as its system Pseudomonas aeruginosa. The conditions noted are these: cited from earlier work.
The next data set concerns Escherichia coli. As to conditions: cited from earlier work.
In data set [4] the test system is Candida albicans. The conditions noted are these: cited from earlier work.
For data set [5] the following is noted: light; cited from earlier work.
The test system of data set [6] is bacterial DNA-dependent RNA polymerase. As to conditions: general statement; cited from earlier work.

The text below walks through data of patent publication US5756145A, “Durable, Resilient and effective antimicrobial coating for medical devices and method of coating therefor” (priority 1995, dated 1998).

The term MIC denotes the smallest concentration in the dilution series that meets the test's criterion for growth inhibition.

Counter-ions that a name gives are not always drawn.

Protocol for Pseud. aeruginosa: as §1, §2, §3
Protocol for Staph. epidermidis: as §1, §2, §3

Take `[H]/N=C(\N/C(=N/[H])NCCCCCCNC(=N)NC(=N)Nc1ccc(Cl)cc1)Nc1ccc(Cl)cc1` [Chlorhexidine]: the Zones of inhibition in the data set on Candida albicans [1] stood at 26 m.m; in the data set on Staph. epidermidis it was 22 m.m; in the data set on Pseud. aeruginosa, 20 m.m. In [2], the bacteriostatic/bactericidal nature result is reported as “very rapid bactericidal activity”. Further, the “spectrum of antimicrobial activity” value in [2] was “broad range of microorganisms, including gram-positive bacteria (such as staphylococci, Enterococcus species), gram-negative bacteria (such as Escherichia coli and Pseudomonas aeruginosa) and Candida species”. For the same molecule, the “effect of organic matter on effectiveness” value in data set [2] was “not affected by the presence of organic matter”.
Turning to `Cc1cc(O)cc(C)c1Cl` [Chloroxylenol, 4-chloro, 3,5-dimethyl phenol], the Zones of inhibition in the data set on Candida albicans [1] is listed as 28 m.m; in the data set with Staph. epidermidis, 32 m.m; with Pseud. aeruginosa, 13 m.m. The “spectrum of antimicrobial activity” value in data set [2] is “good antimicrobial activity against gram-positive bacteria and fungi, and fair activity against gram-negative bacteria”. Further, the “effect of organic matter on effectiveness” value in data set [2] is “minimally affected by organic matter”.
For `CC[C@H]1OC(=O)[C@H](C)[C@@H](O[C@H]2C[C@@](C)(OC)[C@@H](O)[C@H](C)O2)[C@H](C)[C@@H](O[C@@H]2O[C@H](C)C[C@H](N(C)C)[C@H]2O)[C@](C)(O)C[C@@H](C)C(=O)[C@H](C)[C@@H](O)[C@]1(C)O` [Erythromycin], the “spectrum of antimicrobial activity” value in data set [2] was “active against a variety of gram-positive and gram-negative bacteria”. Also, in the data set on protein synthesis, the “inhibition of protein synthesis” value is given as “inhibition of protein synthesis without affecting nucleic acid synthesis”.
`Oc1c(Cl)cc(Cl)c(Cl)c1Cc1c(O)c(Cl)cc(Cl)c1Cl` [Hexachlorophene]: in [2], the bacteriostatic/bactericidal nature entry was “bacteriostatic”; the “spectrum of antimicrobial activity” value was “active against staphylococci and other gram-positive bacteria”. Further, in data set [3], the “solubility in organic solvents” value was “soluble”. Moreover, the solubility in water result in data set [3] (water) was “soluble”.
As to `Cn1sccc1=O` [Methylisothiazolone, 2-Methylisothiazolone Hydrochloride], the MIC with Staphylococcus aureus is 80 µg/mL; with Pseudomonas aeruginosa it was 80 µg/mL; in the data set on Escherichia coli it was 40 µg/mL; in the data set on Candida albicans [4] it was 320 µg/mL. Further, the bacteriostatic/bactericidal nature result in data set [2] is recorded as “bacteriostatic”. For the same molecule, the “spectrum of antimicrobial activity” value in data set [2] is “broad spectrum antimicrobial activity”. In addition, in [3] (acetic acid (rifampin: acetic aqueous solutions)), the “solubility in acetic acid” value is “not soluble”. Further, in data set [3] (formic acid), the “solubility in formic acid” value is “soluble”. The “solubility in organic solvents” value in data set [3] is given as “soluble”. In addition, the photosensitivity entry in data set [5] is listed as “photosensitive”.
Turning to `CN(C)c1ccc(O)c2c1C[C@H]1C[C@H]3[C@H](N(C)C)C(O)=C(C(N)=O)C(=O)[C@@]3(O)C(O)=C1C2=O` [Minocycline], in [2], the bacteriostatic/bactericidal nature result is on record as “primarily bacteriostatic”; the “spectrum of antimicrobial activity” value was “active against a wide range of gram-negative and gram-positive organisms”. Also, the “inhibition of protein synthesis” value in the data set on protein synthesis is reported as “inhibiting protein synthesis”.
For the molecule `CCOc1ccc2ccccc2c1C(=O)N[C@@H]1C(=O)N2[C@@H]1SC(C)(C)[C@@H]2C(=O)O` [Nafcillin], in [2], the “spectrum of antimicrobial activity” value was “effective against both penicillin-G-sensitive and penicillin-G-resistant strains of Staphylococcus aureus as well as against pneumococcus, beta-hemolytic streptococcus, and alpha streptococcus”.
Take `CO[C@H]1/C=C/O[C@@]2(C)Oc3c(C)c(O)c4c(O)c(c(/C=N/N5CCN(C)CC5)c(O)c4c3C2=O)NC(=O)/C(C)=C\C=C\[C@H](C)[C@H](O)[C@@H](C)[C@@H](O)[C@@H](C)[C@H](OC(C)=O)[C@@H]1C` [Rifampin]: in data set [2], the bacteriostatic/bactericidal nature entry is “bactericidal”; the “spectrum of antimicrobial activity” value is “broad spectrum activity against a wide range of gram-positive and gram-negative bacteria”. The “inhibition of bacterial DNA-dependent RNA polymerase” value in [6] is “inhibits bacterial DNA-dependent RNA polymerase activity”.
For `Cc1ccc(C(C)C)c(O)c1` [Thymol, 5-methyl-2 isopropyl phenol], in data set [2], the bacteriostatic/bactericidal nature entry is “bacteriostatic”; the “spectrum of antimicrobial activity” value was “broad spectrum antimicrobial activity against gram-positive bacteria (such as staphylococci and Enterococcus species), gram-negative bacteria (such as Escherichia coli and Pseudomonas aeruginosa) and Candida species”.
Turning to `CC1=CCC(C(C)(C)O)CC1` (stereo not drawn) [α-Terpineol, α-α-4-trimethyl-3-cyclohexine-1-methanol], in [2], the bacteriostatic/bactericidal nature result is listed as “bacteriostatic”; the “spectrum of antimicrobial activity” value is “broad spectrum antimicrobial activity against gram-positive bacteria (such as staphylococci and Enterococcus species), gram-negative bacteria (such as Escherichia coli and Pseudomonas aeruginosa) and Candida species”.
